Assays:
[1] = target: T1, C-terminal catalytic domain of MALT1 (amino acid residues 329-824) (Homo sapiens, UniProt Q9UDY8); assay: MALT1 protease inhibitory activity (enzyme activity inhibition assay, fluorogenic substrate); type: biochemical; conditions: substrate Ac-Leu-Arg-Ser-Arg-AMC 50 µM; 30°C for 2 hours; fluorescence
T1 construct: C-terminal catalytic domain of MALT1 (amino acid residues 329-824)
T1 sequence (Q9UDY8 329-824): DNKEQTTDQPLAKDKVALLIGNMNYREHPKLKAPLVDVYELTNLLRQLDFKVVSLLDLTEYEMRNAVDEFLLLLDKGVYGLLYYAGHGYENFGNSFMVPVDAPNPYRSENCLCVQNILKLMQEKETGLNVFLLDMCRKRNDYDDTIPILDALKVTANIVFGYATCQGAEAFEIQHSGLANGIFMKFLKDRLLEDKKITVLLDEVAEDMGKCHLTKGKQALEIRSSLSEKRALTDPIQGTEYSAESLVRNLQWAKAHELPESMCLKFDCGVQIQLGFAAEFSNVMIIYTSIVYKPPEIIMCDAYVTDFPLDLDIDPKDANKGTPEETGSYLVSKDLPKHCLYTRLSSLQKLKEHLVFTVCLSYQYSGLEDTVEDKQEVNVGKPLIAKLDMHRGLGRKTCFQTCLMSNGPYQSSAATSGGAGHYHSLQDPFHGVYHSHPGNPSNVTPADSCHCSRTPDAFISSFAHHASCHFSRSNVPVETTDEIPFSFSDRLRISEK
Procedure, shortened: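 Human MALT1 catalytic domain (residues 329-824) with Ac-Leu-Arg-Ser-Arg-AMC at 50 µM final, pH 7.5 Tris/HEPES buffer with 0.8 M Na citrate, DTT and CHAPS. Compounds at 0.1 to 10000 nM final, n = 2; reaction 2 h at 30°C. Fluorescence (ex 380/em 460 nm) fitted to a 2-parameter logistic model for IC50.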

[2] = test system: HEK293/API2-MALT1/NF-κB reporter cells; assay: Inhibition of reporter activity in HEK293/API2-MALT1/NF-κB reporter cells; type: cell-based; conditions: Homo sapiens, 24 hours with test substance, One-glo luminescence
Procedure, shortened: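 HEK293 cells with constitutive NF-κB activation by API2-MALT1 fusion, carrying an NF-κB reporter; 293T/CMV reporter cells served as negative control. Cells seeded 24 h, then exposed to compound at final 10,000, 1,000, 100 and 10 nM for 24 h at 37 °C; luminescence read with One-glo, IC50 by non-linear regression.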

SU-DHL-4 cell lines = assay: Proliferation inhibition test, GCB-DLBCL cell line SU-DHL-4 (negative control line); type: cell-based; conditions: Homo sapiens; SU-DHL-4 (GCB-DLBCL, NF-κB pathway-independent, negative control); 96 hours; Cell Counting Kit-8; read-out: Proliferation inhibitory activity against SU-DHL-4 IC50
Procedure, shortened: (§1)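 Cells exposed 96 h at 37 °C to compound at final 10–10,000 nM: OCI-Ly3 (ABC-DLBCL, NF-κB-dependent, IMDM/10% FBS) and SU-DHL-4 (GCB-DLBCL, NF-κB-independent negative control, RPMI-1640/10% FBS). Viability by CCK-8 absorbance at 450 nm after 4 h; IC50 from 2-parameter logistic regression.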

[3] = Central nervous system (CNS) penetration study in mice; type: in vivo; conditions: female, BALB/cCrSlc, mouse, ip, 30 mg/kg intraperitoneally, three hours later, cerebrum and plasma by LC-MS/MS, read-out: Brain-to-plasma concentration ratio (Kp value)
Experimental: To evaluate the central nervous system (CNS) penetration of a test substance, a central nervous system penetration study was conducted using mice.
Six-week-old female BALB/cCrSlc mice (Japan SLC) were used. The test substance suspended in 0.5% methylcellulose was intraperitoneally administered to mice at a dose of 30 mg/kg. Three hours later, blood was collected from the abdominal vena cava under isoflurane anesthesia, and plasma was obtained by centrifugation. After exsanguination from the abdominal vena cava, the cerebrum was collected.
The drug concentrations of the collected plasma and cerebrum were measured by LC-MS/MS. To determine the brain penetration of the drug, the brain-to-plasma concentration ratio (Kp value) was calculated.

OCI-Ly3 cell lines = assay: Proliferation inhibition test, ABC-DLBCL cell line OCI-Ly3; type: cell-based; conditions: Homo sapiens; OCI-Ly3 (ABC-DLBCL, NF-κB pathway-dependent); 96 hours; Cell Counting Kit-8; read-out: Proliferation inhibitory activity against OCI-Ly3 IC50
Procedure, shortened: as §1

| SMILES | IC50 [1] [nM] | IC50 (SU-DHL-4 cell lines) [nM] | Kp at 3 h [3] | IC50 (OCI-Ly3 cell lines) [nM] | IC50 [2] [nM] |
| --- | --- | --- | --- | --- | --- |
| Cn1cc(C(=O)c2cnn(-c3cncc4c(F)cccc34)c2C(F)(F)F)c2cc(Cl)c(-c3ncccn3)nc21 [Example 12, [5-chloro-1-methyl-6-(pyrimidin-2-yl)-1H-pyrrolo[2,3-b]pyridin-3-yl][1-(8-fluoroisoquinolin-4-yl)-5-(trifluoromethyl)-1H-pyrazol-4-yl]methanone] | 11 | 1900 | 0.66 | 210 | 85 |
| CCn1cc(C(=O)C2C[C@@H](C)N(c3ncc(F)cc3I)[C@H](C)C2)c2cc(Cl)c(-n3nccn3)nc21 (stereo partly drawn) [Example 14, [5-chloro-1-ethyl-6-(2H-1,2,3-triazol-2-yl)-1H-pyrrolo[2,3-b]pyridin-3-yl][(2R,6R)-1-(5-fluoro-3-iodopyridin-2-yl)-2,6-dimethylpiperidin-4-yl]methanone] | 58 | 8500 | 0.74 | 470 | 70 |
| CC(C)n1cc(C(=O)C2C[C@@H](C)N(c3ncc(F)cc3I)[C@H](C)C2)c2cc(Cl)c(-n3nccn3)nc21 (stereo partly drawn) [Example 17, [5-chloro-1-isopropyl-6-(2H-1,2,3-triazol-2-yl)-1H-pyrrolo[2,3-b]pyridin-3-yl][(2R,6R)-1-(5-fluoro-3-iodopyridin-2-yl)-2,6-dimethylpiperidin-4-yl]methanone] | 160 | 6700 | 0.26 | 690 | 300 |
| CCn1cc(C(=O)C2C[C@@H](C)N(c3ncc(F)cc3I)[C@H](C)C2)c2cc(Cl)c(-c3ncccn3)nc21 (stereo partly drawn) [Example 18, [5-chloro-1-ethyl-6-(pyrimidin-2-yl)-1H-pyrrolo[2,3-b]pyridin-3-yl][(2R,6R)-1-(5-fluoro-3-iodopyridin-2-yl)-2,6-dimethylpiperidin-4-yl]methanone] | 65 | 6700 | 0.63 | 480 | 100 |

Continued, in another order:

| IC50 [1] [nM] | IC50 (SU-DHL-4 cell lines) [nM] | Kp at 3 h [3] | IC50 (OCI-Ly3 cell lines) [nM] | SMILES | IC50 [2] [nM] |
| --- | --- | --- | --- | --- | --- |
| 51 | 1400 | 0.27 | 140 | CCCn1cc(C(=O)c2cnn(-c3cncc4c(F)cccc34)c2C(F)(F)F)c2cc(Cl)c(-c3ncccn3)nc21 [Example 26, [5-chloro-1-propyl-6-(pyrimidin-2-yl)-1H-pyrrolo[2,3-b]pyridin-3-yl][1-(8-fluoroisoquinolin-4-yl)-5-(trifluoromethyl)-1H-pyrazol-4-yl]methanone] | 110 |
| 24 | > 10000 | 1.75 | 610 | Cn1cc(C(=O)c2cnn(-c3cccc4nnsc34)c2C(F)(F)F)c2cc(Cl)c(-n3nccn3)nc21 [Example 28, [1-(1,2,3-benzothiadiazol-7-yl)-5-(trifluoromethyl)-1H-pyrazol-4-yl][5-chloro-1-methyl-6-(2H-1,2,3-triazol-2-yl)-1H-pyrrolo[2,3-b]pyridin-3-yl]methanone] | 440 |
| 17 | > 10000 | 0.98 | 1000 | Cn1cc(C(=O)c2cnn(-c3cccc4nnsc34)c2C(F)(F)F)c2cc(Cl)c(-c3ncccn3)nc21 [Example 29, [1-(1,2,3-benzothiadiazol-7-yl)-5-(trifluoromethyl)-1H-pyrazol-4-yl][5-chloro-1-methyl-6-(pyrimidin-2-yl)-1H-pyrrolo[2,3-b]pyridin-3-yl]methanone] | 220 |
